Holding throughout (assay type): cell-based
The test system of experiment [1] is CB2. Nature of the experiment: Western blot of CB2 levels in MCF7 cultures after two days of treatment. The conditions noted are these: for levels of the CB2 receptor after treatment: cancer cells (MCF7), summary statement. How it is done:
Levels of Bcl2-associated death promoter (BAD), p21 protein, the opioid receptors kappa 1 (OPRK1) and mu 1 (OPRM1), and the cannabinoid receptors CBR1 (CB1) and CBR2 (CB2) are visualised by Western blot (left) against GAPDH as a loading control, and quantified via density analysis relative to GAPDH (right).
One illustrative and non-limiting experiment was carried out on cultures of MCF7 (breast cancer) cells. In brief, either LDN at 10 nM or 6BN at 1 μM or 10 μM was administered in vitro to a culture for two days, after which the expression levels of BAD, p21, opioid receptors kappa and mu, CB1, CB2, and GAPDH (as a loading control) were analysed via Western blot and subsequent quantification via density measurement of the bands.
In full, MCF7 cells were seeded into 6-well plates at a density of 1×10^5/well and left to adhere over-night. Naltrexone (10 nM) or 6-β-naltrexol (1 μM or 10 μM) were added to the cells before harvesting cells for western blot analysis. Primary probing was performed with specific antibodies generated against BAD, p21, OPRK1, […], CBR-1 and CBR-2. […] Anti-GAPDH was used as a loading control. All antibodies were used at a dilution of 1:1000, followed by the appropriate HRP conjugated secondary antibodies also at a dilution of 1:1000. Bands were visualised by the SuperSignal chemiluminescent detection system, and densitometry of band intensity was determined using Adobe Photoshop CS3, v10.0, and normalised to the loading control.
(In general: Immunoblotting shows a protein as a band on a membrane.)

Experiment [2] concerns MCF7 (breast cancer) cells. Nature of the experiment: Two-stage sequential treatment, cell number and viability (trypan blue). The following applies: LDN 10 nM or 6BN 10 μM for 48 h before cannabidiol 10 μM for 48 h, versus reversed sequence. As to the method:
Each treatment lasted four days and consisted of two days of treatment with the first agent (UN=control, LDN=Low Dose Naltrexone at 10 nM CBD=Cannabidiol, 6BN=6-β-naltrexol) before the second-named agent was introduced for a further two days.
Another illustrative and non-limiting experiment was carried out on cultures of MCF7 (breast cancer) cells. In brief, the cultures were treated with LDN or 6BN for two days, after which a cannabinoid was administered for a further two days. Cell number and viability were assessed on day four. The sequence of the administration for each therapeutic agent was reversed and the experiment repeated.
In full, MCF7 cells were seeded into 6-well plates at a density of 1.5×10^4/well and left to adhere. Cells were then cultured with naltrexone (10 nM), 6-β-naltrexol (10 μM) or cannabidiol (10 μM). Drug-containing media was removed after 48 h, and cells were rinsed gently with drug-free medium. Fresh culture medium was then added to the cells supplemented with either naltrexone (10 nM), 6-β-naltrexol (10 μM) or cannabidiol (10 μM), as indicated in the graph. Cell number and viability were assessed a further 48 h later, with percentages of live and dead cells being discriminated by trypan blue dye exclusion. Data were then consolidated to compare the effect of sequence on overall effect.

Experiment [3] has as its system A549 (lung cancer) cells. Nature of the experiment: Two-block schedule LDN+CBD and chemotherapeutic agent, cell number and viability at 96 h. How it is done:
• A549 (lung cancer) and HCT116 (colon cancer) cells were cultured with drugs according to the schedules in Table 1. The schedules lasted a total of 96 h. • Treatments were separated into two blocks, each lasting 48 h. Due to the complications of cell testing using three different drugs in three different treatment phases, the CBD and LDN were administered together in one treatment phase and the chemotherapeutic agent in the other treatment phase. • There was a washout period between the two blocks, where exhausted media containing drugs were removed, cells then washed, before fresh media was added that contained the next block of treatment. • The chemotherapeutic agents were gemcitabine (GEM) or oxaliplatin (OXP), and used at an ˜IC20 concentration (1 uM). Low dose naltrexone (LDN) was used at 10 nM and cannabinoid (CBD) was used at 1 uM. “0” means nothing was administered and is used as a control. • Cell number and percentage cell viability were assessed at 96 h. Data were then consolidated to compare the effect of sequence on overall effect.

“Also recorded” adds a separate entry of the source. Read-outs that look alike come from different tables or passages of the source.

The values below come from US20220143010A1, “CANCER TREATMENT COMPRISING NALTREXONE AND A CANNABINOID” (LDN Pharma Limited, priority 2019, published 2022).

Turning to `Oc1ccc2c3c1OC1C(O)CC[C@@]4(O)[C@@H](C2)N(CC2CC2)CC[C@]314` (stereo partly shown) [6BN, N-cyclopropylmethyl-7,8-dihydro-14-hydroxynorisomorphine], in experiment [1] (MCF7 cells, 10 μM 6BN, two days), the “rise of CB2 compared among the three treatments” value is on record as “highest”. For the same molecule, the “levels of the CB2 receptor after treatment” value in experiment [1] is “significant increase”. In addition, the “effect on inhibiting the proliferation of the cancer, by sequence” value in experiment [2] is “greater effect on inhibiting the proliferation”. With `O=C1[O][Pt]2([NH][C@@H]3CCCC[C@H]3[NH]2)[O]C1=O` [OXP, oxaliplatin], in experiment [3] (concentration used in Example 3, A549 and HCT116, cell line not specified, read-out: IC20 concentration), the IC20 is approximately 1 µM. As to `Nc1ccn([C@@H]2O[C@H](CO)[C@@H](O)C2(F)F)c(=O)n1` [GEM, gemcitabine], the IC20 in experiment [3] (Homo sapiens, A549, read-out: IC20 concentration) was approximately 1 µM. With `O=C1CC[C@@]2(O)[C@H]3Cc4ccc(O)c5c4[C@@]2(CCN3CC2CC2)[C@H]1O5` [LDN, 17-cyclopropylmethyl-4.5α-epoxy-3,14-dihydroxymorphinan-6-one], in experiment [1], the “levels of the CB2 receptor after treatment” value was “significant increase; also recorded: increased significantly”. The “effect on inhibiting the proliferation of the cancer, by sequence” value in experiment [2] is on record as “greater effect on inhibiting the proliferation”.
